± gives the standard deviation of the averaged measurements.
Assays:
Settings in all cases: 72 h
[1] = test system: Caco-2; assay: cell viability relative to DMSO; higher = less toxic
[2] = test system: HepG2; assay: as above
[3] = test system: U2OS; assay: as above
[4] = test system: Vero E6; assay: as above
[5] = test system: Caco-2; assay: relative viability EC50 (midpoint between 100% and the lowest measured viability); higher = less toxic
[6] = test system: HepG2; assay: as above
[7] = test system: U2OS; assay: as above
[8] = test system: Vero E6; assay: as above
[9] = test system: Caco-2; assay: drug sensitivity score (DSS) for viability; higher = more toxic; extreme values may be limits of the assay
[10] = test system: HepG2; assay: as above
[11] = test system: U2OS; assay: as above
[12] = test system: Vero E6; assay: as above
[13] = test system: Calu-3; assay: cell viability relative to DMSO; higher = less toxic
[14] = test system: Calu-3; assay: relative viability EC50 (midpoint between 100% and the lowest measured viability); higher = less toxic
[15] = test system: Calu-3; assay: drug sensitivity score (DSS) for viability; higher = more toxic; extreme values may be limits of the assay

| Structure (SMILES) | cell viability ([1]; 1 nM) [%] | cell viability ([1]; 10 nM) [%] | cell viability ([1]; 100 nM) [%] | cell viability ([1]; 1000 nM) [%] | cell viability ([1]; 10000 nM) [%] | cell viability ([2]; 1 nM) [%] | cell viability ([2]; 10 nM) [%] | cell viability ([2]; 100 nM) [%] | cell viability ([2]; 1000 nM) [%] | cell viability ([2]; 10000 nM) [%] | cell viability ([3]; 1 nM) [%] | cell viability ([3]; 10 nM) [%] | cell viability ([3]; 100 nM) [%] | cell viability ([3]; 1000 nM) [%] | cell viability ([3]; 10000 nM) [%] | cell viability ([4]; 1 nM) [%] | cell viability ([4]; 10 nM) [%] | cell viability ([4]; 100 nM) [%] | cell viability ([4]; 1000 nM) [%] | cell viability ([4]; 10000 nM) [%] | relative viability EC50 [5] [µM] | relative viability EC50 [6] [µM] | relative viability EC50 [7] [µM] | relative viability EC50 [8] [µM] | drug sensitivity score [9] | drug sensitivity score [10] | drug sensitivity score [11] | drug sensitivity score [12] | cell viability ([13]; 1 nM) [%] | cell viability ([13]; 10 nM) [%] | cell viability ([13]; 100 nM) [%] | cell viability ([13]; 1000 nM) [%] | cell viability ([13]; 10000 nM) [%] | relative viability EC50 [14] [µM] | drug sensitivity score [15] |
| --- | --- | --- | --- | --- | --- | --- | --- | --- | --- | --- | --- | --- | --- | --- | --- | --- | --- | --- | --- | --- | --- | --- | --- | --- | --- | --- | --- | --- | --- | --- | --- | --- | --- | --- | --- |
| CC[C@H](C)[C@@H]([C@@H](CC(=O)N1CCC[C@H]1[C@H](OC)[C@@H](C)C(=O)N[C@@H](Cc1ccccc1)c1nccs1)OC)N(C)C(=O)[C@@H](NC(=O)[C@H](C(C)C)N(C)C)C(C)C [dolastatin-10] | 51.5 | 40.6 | 35 | 32.2 | 20.8 | 24.5 | 32.5 | 32.5 | 29.4 | 22.2 | 35.8 | 22.7 | 15.4 | 15.6 | 11.1 | 38.5 | 24.6 | 18.4 | 17.9 | 9.9 | < 0.001 | < 0.001 | < 0.001 | < 0.001 | 31.3 | 34 | 40 | 39 |  |  |  |  |  |  |  |
| Cc1c(Cn2c(C)nc3c(C(=O)O)cc(N4CCOCC4)cc32)cccc1C(F)(F)F | 102 | 97.3 | 91.2 | 93.1 | 84.9 |  |  |  |  |  | 95.7 | 104 | 96.2 | 99 | 91.3 | 97.2 | 101 | 93.1 | 84.4 | 58.9 | > 10 |  | > 10 |  | 0.5 |  | 0 | 3.6 | 110 | 101 | 97 | 94.4 | 86 | > 10 | 0.2 |
| c1ccc(C[C@H](c2ccccc2)N2CCCCC2)cc1 (racemic) [1-(1,2-diphenylethyl)piperidine-(+/-)] | 91.2 | 93.9 | 101 | 100 | 103 | 92.9 | 103 | 96.5 | 100 | 86.8 | 104 | 93.8 | 98.7 | 98.9 | 105 | 92.6 | 97.7 | 92.2 | 97.1 | 102 | > 10 | > 10 | > 10 | > 10 | 0 | 0.1 | 0 | 0 |  |  |  |  |  |  |  |
| O=C1c2c(O)cccc2C([C@@H]2O[C@H](CO)[C@@H](O)[C@H](O)[C@H]2O)c2cc(CO)cc(O)c21 (some centres undefined) [aloin] | 92.1 | 104 | 96.6 | 93.9 | 99.4 | 106 | 94.1 | 103 | 94.7 | 103 | 96.9 | 100 | 92.9 | 97.4 | 92.7 |  |  |  |  |  | > 10 | > 10 | > 10 |  | 0 | 0 | 0 |  | 104 | 95.7 | 103 | 104 | 97.3 | > 10 | 0 |
| CC(C)C[C@@H](NC(=O)[C@H](Cc1ccccc1)NC(=O)CNC(=O)[C@@H](C)NC(=O)[C@@H](N)Cc1ccc(O)cc1)C(=O)O [BW-180C] | 113 | 96.9 | 98.6 | 102 | 101 | 105 | 98.4 | 99.4 | 102 | 100 | 99.4 | 97.8 | 104 | 104 | 99.1 |  |  |  |  |  | > 10 | > 10 | > 10 |  | 0 | 0 | 0 |  | 97.6 | 94.5 | 91.1 | 100 | 89.4 | > 10 | 0 |
| COc1cc2ncnc(Nc3cccc(Cl)c3F)c2cc1OC(=O)N1CCN(C)C[C@H]1C [AZD3759] | 94.4 | 91.1 | 91.2 | 90.1 | 81.9 | 101 | 86.6 | 104 | 95.8 | 101 | 96.8 | 101 | 95.6 | 95.6 | 92.8 | 94.7 | 90.3 | 81.8 | 60.8 | 51.6 | > 10 | > 10 | > 10 |  | 1.1 | 0 | 0 | 9.3 | 86.5 | 93.6 | 93.1 | 48.4 | 32.2 | 0.442 | 10.6 |
| O=C(O)c1ccc2nc(-c3cc(Cl)cc(Cl)c3)oc2c1 [tafamidis-meglumine] | 103 | 88 | 102 | 90.2 | 103 | 103 | 102 | 99.5 | 99.6 | 96 | 100 | 101 | 101 | 97.6 | 100 |  |  |  |  |  | > 10 | > 10 | > 10 |  | 0 | 0 | 0 |  | 97.6 | 95.8 | 94.7 | 93.1 | 99.2 | > 10 | 0 |
| O[C@H]1CC[C@H](Nc2ncc3nc(Nc4c(F)cc(F)cc4F)n([C@H]4CCOC4)c3n2)CC1 [CC-930] | 99.1 | 102 | 102 | 96.7 | 86.1 | 104 | 102 | 93.5 | 97.1 | 89.6 | 97.3 | 104 | 95 | 96.7 | 91.1 | 98.5 | 97 | 98.3 | 93.7 | 73.4 | > 10 | > 10 | > 10 |  | 0.4 | 0 | 0 | 2 | 101 | 100 | 104 | 87.5 | 81.7 | > 10 | 1.6 |
| COC[C@H](C)Oc1cc(O[C@@H](C)Cc2ccccc2)cc(C(=O)Nc2ccc(C(=O)O)cn2)c1 [GKA-50] | 100 | 97 | 96.2 | 96.2 | 92.7 | 112 | 105 | 99.5 | 120 | 113 | 103 | 104 | 103 | 99.4 | 98.8 |  |  |  |  |  | > 10 | > 10 | > 10 |  | 0 | 0 | 0 |  | 96.9 | 103 | 97.8 | 107 | 98.2 | > 10 | 0 |
| Cn1nccc1Nc1nccc(-c2ccn([C@H](CO)c3ccc(Cl)c(F)c3)c(=O)c2)n1 [GDC-0994] | 97.6 ± 3.7 | 98.4 ± 3.1 | 87.8 ± 2.5 | 82.4 ± 5.8 | 79.9 ± 6.7 | 106.8 ± 0.57 | 96.8 ± 3 | 74.8 ± 3.2 | 38.2 ± 1.2 | 40.6 ± 3.4 | 96.9 ± 0.14 | 101.3 ± 0.99 | 92.2 ± 3.8 | 97.4 ± 0.85 | 96.8 ± 2.9 | 104 ± 7.4 | 101 ± 3.4 | 101 ± 5.4 | 87.75 ± 0.35 | 70.9 ± 5.8 | > 10 | 0.119 | > 10 |  | 3.15 ± 2.6 | 14.5 ± 0.28 | 0 | 2.6 ± 0.28 | 99.2 ± 6.9 | 103 ± 3 | 97.9 ± 7.3 | 96.45 ± 0.78 | 110 ± 4.3 | > 10 | 0 |
| CC(C)NC(=O)COc1cccc(-c2nc(Nc3ccc4[nH]ncc4c3)c3ccccc3n2)c1 [KD025] | 104 | 100 | 102 | 97.8 | 70.5 | 98.7 | 96.8 | 107 | 86.8 | 94.5 | 97.2 | 103 | 97.5 | 101 | 46.5 | 105 | 99.1 | 104 | 97.3 | 72.8 |  | > 10 | 3.29 |  | 1.6 | 0.8 | 2.7 | 1.5 | 95.6 | 108 | 89.4 | 105 | 108 | > 10 | 0 |
| NCC(O)(CS(=O)(=O)O)c1ccc(Cl)cc1 (centres undefined) [2-hydroxysaclofen] | 98.4 | 96.2 | 91.4 | 98.6 | 96.3 | 101 | 98.5 | 89.4 | 90.3 | 98.8 | 104 | 94.8 | 94.9 | 103 | 97.4 | 100 | 98.1 | 102 | 97.2 | 97.5 | > 10 | > 10 | > 10 | > 10 | 0 | 0.3 | 0 | 0 |  |  |  |  |  |  |  |
| CCCCCCCCCCCCCCCc1cccc(OCC(=O)NCCO)c1 [PDP-EA] | 105 | 109 | 98.2 | 109 | 109 | 102 | 113 | 95.6 | 115 | 103 |  |  |  |  |  |  |  |  |  |  | > 10 | > 10 |  |  | 0 | 0 |  |  | 102 | 87.2 | 94.9 | 91.5 | 91.7 | > 10 | 0 |
| O=C(CCCCCCC(=O)NO)NO [SBHA] | 95.6 | 99.4 | 109 | 98.1 | 86.7 | 104 | 96.9 | 105 | 94.4 | 48.7 | 104 | 96.3 | 100 | 98.2 | 81.7 | 106 | 99.8 | 99.6 | 102 | 80.4 | > 10 | 2.27 | > 10 | > 10 | 0.2 | 3.6 | 0.7 | 0.4 | 104 | 95.9 | 86.4 | 90.1 | 72.6 |  | 2.4 |
| Oc1cc(O)c(Cl)cn1 [gimeracil] | 97.8 | 92.7 | 97.7 | 95.8 | 98.1 | 105 | 106 | 98.3 | 96.2 | 87.2 | 100 | 100 | 104 | 98.5 | 104 |  |  |  |  |  | > 10 | > 10 | > 10 |  | 0 | 0.2 | 0 |  | 107 | 105 | 104 | 98.3 | 92.4 | > 10 | 0 |
| CNCc1ccc(-c2[nH]c3cc(F)cc4c3c2CCNC4=O)cc1 [rucaparib] | 94.7 | 91.2 | 97.4 | 94.5 | 89.6 | 98.8 | 109 | 95.5 | 92 | 78.7 | 101 | 93.4 | 98.7 | 102 | 106 | 96.4 | 99.9 | 96.1 | 93.7 | 93.3 | > 10 | > 10 | > 10 | > 10 | 0 | 1.1 | 0 | 0 |  |  |  |  |  |  |  |
